Experimental data taken from paper PMC11748689, “Pharmacological and structural understanding of the Trypanosoma cruzi proteasome provides key insights for developing site-specific inhibitors” (The Journal of Biological Chemistry, 2024).
Residues, ends and D or L forms follow the SMILES beside them. *: point of attachment. Cbz = O=C(OCc1ccccc1)*

Tests used:
Type in all cases: biochemical
[1] = biological target: native T. cruzi proteasome (caspase-like activity, β1) (Trypanosoma cruzi, UniProt V5BHX1); experiment: Caspase-like activity assay (Proteasome-Glo), native T. cruzi proteasome; conditions: mean ± SD, N = 3; for IC50: read-out: pIC50, Caspase Assay, Native (converted)
Method: (§1) Chymotrypsin-, trypsin-, and caspase-like activity assays were performed using a commercially available Proteasome-Glo 3-substrate system assay kit (catalog number G8532) (Promega Corporation) according to the manufacturers protocols and as previously described ([24]).
(§2) Prior to running assays, Proteasome-Glo buffer was used to reconstitute the luciferin detection reagent (containing a recombinant thermostable luciferase enzyme). The resuspended luciferin detection reagent was then mixed with Proteasome-Glo chymotrypsin-, trypsin- or caspase-like substrates (either 40 μM suc-Leu-Leu-Val-Tyr-aminoluciferin, 30 μM Z-Leu-Arg-Arg-aminoluciferin (Z is benzyloxycarbonyl) or 40 μM Z-Nle-Pro-Nle-Asp-aminoluciferin respectively (these concentrations represent 2x final assay concentrations)). These substrate mixtures were allowed to incubate at room temperature for 60 min prior to use to allow the removal of any contaminating free aminoluciferin.
(§3) When proteasome inhibitors were to be screened in the chymotrypsin, trypsin, and caspase assays, test compounds were dispensed into assay wells using an ECHO 550 acoustic dispenser (Labcyte) (final DMSO concentration 1%). Compounds were tested in either a 10-point concentration series (30 μM top final assay concentration, 1 in 3 dilution series) or a 12-point concentration series (30 μM top final assay concentration, 1 in 2.5 dilution series).
(§4) Proteasome assays were then performed as described above using Promega Proteasome-Glo 3-substrate system assay kit. […] Diluted proteasome (4 μl) was added to assay plates using an electronic multichannel pipette (Integra Biosciences Ltd) and the proteasome incubated with compound for 60 min at room temperature.
(§5) Following the 60 min incubation of proteasome and compounds, assays were initiated with the addition of 4 μl of a substrate mix (containing substrate and the luciferin detection reagent) using an electronic multichannel pipette. Final assay concentrations of substrates used were either 20 μM Suc-Leu-Leu-Val-Tyr-aminoluciferin, 15 μM Z-Leu-Arg-Arg-aminoluciferin, or 20 μM Z-Nle-Pro-Nle-Asp-aminoluciferin for chymotrypsin-, trypsin-, or caspase-like activity, respectively. Following a further 60 min assay incubation, luminescence was read using an EnVision 2102 Multilabel Reader (PerkinElmer, Inc) with 0.2 s per well reading time.
(§6) All data processing was performed using Microsoft Excel for Microsoft 365 software.
(§7) Nonlinear dose-response curve fitting was carried out using the Microsoft Excel add-in, XLfit (IDBS). Percentage inhibition data were either fitted to a standard 4-parameter logistic fit model (XLfit model 205; Equation 2) or a biphasic model (either XLfit model 300; Equation 3 or a custom biphasic model; Equation 4 (used in cases where the top and/or bottom parameters deviated from 100%/0% inhibition)).(2) y=A+(B−A)/1+(C/x)^D Where A = % inhibition at bottom, B = % inhibition at top, C = IC50, D = slope, x = inhibitor concentration and y = % inhibition.(3) y=(A/(1+10^(C−log(x))∗B))+((100−A)/(1+10^(D−log(x))∗B)) With A = % inhibition at midplateau, B = slope, C = log(IC50^A), D = log(IC50^B)).
(§8) All IC50 data generated were converted to pIC50 using Equation 5.

[2] = biological target: recombinant WT T. cruzi proteasome (chymotrypsin-like activity, β5) (Trypanosoma cruzi, UniProt V5BU39+V5C017); experiment: biochemical; conditions: for maximum % inhibition plateau, Chymotrypsin Assay, Wild-type: mean ± SD, N = 3 (N = 2 for DDD02091966), (a) mid-point plateau from biphasic curve fits
Method: as §1, §2
(§9) Proteasome assays were carried out using 384-well, white, low-volume plates (catalog number 784904) (Greiner Bio-One) at room temperature (∼23 °C) in 8 μl reaction volumes. When activity checks were to be run in the presence or absence of a fixed concentration of proteasome inhibitor, 80 nL of the inhibitor (at a concentration 100x the required final assay concentration), or 80 nL dimethylsulfoxide (DMSO), were dispensed into assay plates using an Echo 550 acoustic dispenser (Labcyte).
(§10) A 1 in 2 dilution series of the various T. cruzi proteasome samples (native, recombinant WT, β4^R mutant, and Δβ1Δβ2 mutant) were produced in assay buffer (50 mM Tris–HCl, pH 7.5, 10 mM sucrose, 5 mM MgCl2, 1 mM DTT, 2 mM ATP, 150 mM NaCl, 1 mM EDTA, and 0.05 mg/ml bovine serum albumin). Subsequently, 4 μl of the various concentrations of diluted proteasome were added to assay plates using an electronic multichannel pipette (Integra Biosciences Ltd). When kinetic read activity checks were performed (Fig. 2), proteasome final assay concentrations used were 115 μg/ml, 115 μg/ml, and 230 μg/ml native proteasome (in the chymotrypsin, trypsin, and caspase assays, respectively), and 4.1 μg/ml, 3.4 μg/ml, or 1.4 μg/ml recombinant WT proteasome (in the chymotrypsin, trypsin, and caspase assays, respectively). When activity checks were to be run in the presence or absence of a proteasome inhibitor plates containing inhibitor or DMSO control were incubated with the relevant proteasome sample for 60 min at room temperature (this step was not included in activity check experiments where compounds were not used).
(§11) Following the 60 min incubation of proteasome and compound (if required), assays were initiated with the addition of 4 μl of substrate mix (containing substrate and the luciferin detection reagent) using an electronic multichannel pipette. Final assay concentrations of substrates used were either 20 μM Suc-Leu-Leu-Val-Tyr-aminoluciferin, 15 μM Z-Leu-Arg-Arg-aminoluciferin, or 20 μM Z-Nle-Pro-Nle-Asp-aminoluciferin for chymotrypsin-, trypsin- or caspase-like activity respectively.
(§12) Luminescence was read either kinetically or as an endpoint read using an EnVision 2102 Multilabel Reader (PerkinElmer, Inc) with 0.2 s per well reading time. When kinetic assays were run, luminescence was read every 5 min for 90 min. Endpoint assays were run for 60 min before luminescence was read. All data processing and linear fit analyses were performed using Microsoft Excel for Microsoft 365 software (Redmond, Washington; https://www.microsoft.com/).
as §3

[3] = biological target: recombinant β4^R mutant T. cruzi proteasome (trypsin-like activity) (Trypanosoma cruzi, UniProt V5BCU3); conditions: mean ± SD, N = 3
Method: (§13) Point mutations were created in individual subunits using overlapping PCR from the original templates using Polh and Tn7L primers outside the genes and suitable internal primers to introduce selected mutations. For Δβ1Δβ2, β1 Thr 55, and β2 Thr 67 were both mutated to Ala, the β4^R mutant was produced by mutating Phe 24 and Ile 29 to Leu and Met respectively in β4 subunit.
as §1, §2, §9, §10, §11, §12

[4] = biological target: recombinant β4^R mutant T. cruzi proteasome (caspase-like activity) (Trypanosoma cruzi, UniProt V5BHX1); experiment: Caspase-like activity assay (Proteasome-Glo), recombinant β4^R mutant T. cruzi proteasome
Method: as §13, §1, §2, §9, §10, §11, §12

[5] = biological target: recombinant WT T. cruzi proteasome (caspase-like activity, β1) (Trypanosoma cruzi, UniProt V5BHX1); experiment: Caspase-like activity assay (Proteasome-Glo), recombinant wild-type T. cruzi proteasome
Method: as §1, §2, §3, §4, §5, §6, §7, §8

[6] = biological target: native T. cruzi proteasome (chymotrypsin-like activity, β5) (Trypanosoma cruzi, UniProt V5BU39+V5C017); experiment: Chymotrypsin-like activity assay (Proteasome-Glo), native T. cruzi proteasome
Method: as §1, §2, §3, §4, §5, §6, §7, §8

[7] = biological target: native T. cruzi proteasome (trypsin-like activity, β2) (Trypanosoma cruzi, UniProt V5BCU3); experiment: Trypsin-like activity assay (Proteasome-Glo), native T. cruzi proteasome; conditions: mean ± SD, N = 3; for IC50: read-out: pIC50, Trypsin Assay, Native (converted)
Method: as §1, §2, §3, §4, §5, §6, §7, §8

[8] = biological target: recombinant β4^R mutant T. cruzi proteasome (chymotrypsin-like activity) (Trypanosoma cruzi, UniProt V5BU39+V5C017, F24L/I29M); experiment: biochemical
Method: as §13, §1, §2, §9, §10, §11, §12

[9] = biological target: recombinant Δβ1Δβ2 mutant T. cruzi proteasome (chymotrypsin-like activity) (Trypanosoma cruzi, UniProt V5BU39+V5C017); experiment: biochemical
Method: as §13, §1, §2, §9, §10, §11, §12

[10] = biological target: recombinant WT T. cruzi proteasome (trypsin-like activity, β2) (Trypanosoma cruzi, UniProt V5BCU3); experiment: biochemical; conditions: mean ± SD, N = 3; for IC50: read-out: pIC50, Trypsin Assay, Wild-type (converted)
Method: as §1, §2, §3, §4, §5, §6, §7, §8

CC[C@H](C)[C@H](NC(=O)[C@H]([C@@H](C)CC)N(C)C(C)=O)C(=O)N[C@H](C(=O)N[C@@H](CC(C)C)C(=O)[C@@]1(C)CO1)[C@@H](C)O [Epoxomicin, reference compound]
pIC50, Caspase Assay, Native [1]: 5.99 ± 0.01
pIC50, Chymotrypsin Assay, Wild-type [2]: 7.40 ± 0.17
maximum % inhibition plateau, Chymotrypsin Assay, Wild-type [2]: 96.1 ± 3.0%
pIC50, Trypsin Assay, β4^R mutant [3]: 6.11 ± 0.06
pIC50, Caspase Assay, β4^R mutant ([4]; mean ± SD, N = 3): 5.88 ± 0.03
pIC50, Caspase Assay, Wild-type ([5]; mean ± SD, N = 3): 5.97 ± 0.03
pIC50, Chymotrypsin Assay, Native ([6]; mean ± SD, N = 3, biphasic curves (a): pIC50 of most potent curve, 60 min preincubation): 7.50 ± 0.12
pIC50, Trypsin Assay, Native [7]: 6.08 ± 0.00
pIC50, Chymotrypsin Assay, β4^R mutant ([8]; mean ± SD, N = 3, biphasic curves (a): pIC50 of most potent curve): 7.33 ± 0.15
maximum % inhibition plateau, Chymotrypsin Assay, Δβ1Δβ2 mutant ([9]; mean ± SD, N = 3): 100.1 ± 0.5%
pIC50, Chymotrypsin Assay, Δβ1Δβ2 mutant ([9]; mean ± SD, N = 3): 7.44 ± 0.03
pIC50, Trypsin Assay, Wild-type [10]: 6.09 ± 0.04

CC(C)C[C@H](NC(=O)CNC(=O)c1cc(Cl)ccc1Cl)B(O)O [Ixazomib, reference compound]
IC50 [1]: 44.7 nM
IC50 [2]: 19.5 nM
maximum % inhibition plateau, Chymotrypsin Assay, Wild-type [2]: 52.7 ± 21.9^ a %
pIC50, Trypsin Assay, β4^R mutant [3]: 5.53 ± 0.03
IC50 [4]: 46.8 nM
IC50 [5]: 55 nM
IC50 [6]: 35.5 nM
IC50 [7]: 8710 nM
IC50 [8]: 13.2 nM
IC50 [9]: 22.9 nM
IC50 [10]: 6920 nM

CC(C)C[C@@H](C=O)NC(=O)[C@H](CC(C)C)NC(=O)[C@H](CC(C)C)NC(=O)OCc1ccccc1 [MG132, carbobenzoxy-l-leucyl-l-leucyl-l-leucinal, reference compound] (Cbz-Leu-Leu-Leu-aldehyde)
IC50 [1]: 3980 nM
IC50 [2]: 115 nM
maximum % inhibition plateau, Chymotrypsin Assay, Wild-type [2]: 66.1 ± 6.6^ a %
pIC50, Trypsin Assay, β4^R mutant [3]: 5.21 ± 0.11
IC50 [4]: 3090 nM
IC50 [5]: 3310 nM
IC50 [6]: 120 nM
IC50 [7]: 8910 nM
IC50 [8]: 60.3 nM
IC50 [9]: 91.2 nM
IC50 [10]: 8320 nM

COC[C@H](NC(=O)c1cnc(C)s1)C(=O)N[C@@H](COC)C(=O)N[C@@H](Cc1ccccc1)C(=O)[C@@]1(C)CO1 [Oprozomib]
IC50 [1]: > 30200 nM
pIC50, Trypsin Assay, β4^R mutant [3]: <4.52
IC50 [4]: > 30200 nM
IC50 [5]: > 30200 nM
IC50 [7]: > 30200 nM
IC50 [10]: > 30200 nM
